Experimental findings from patent US10570150B2, “6,7-trans cephalosporin-based probes for detecting bacteria expressing a metallo-beta-lactamase” (priority 2014, dated 2020) are described below.

A short description of data set [1]: Spontaneous hydrolysis of probe in PBS buffer. The data set is classed as physicochemical. To be noted: [S]0=20 μM. From the text: FIGS. 14A-14G illustrate the spontaneous hydrolysis in buffer of a probe according to the disclosure. FIG. 14A is a schema illustrating the spontaneous hydrolysis of a probe of the disclosure in PBS buffer to release umbelliferone and thereby generate a fluorescent signal. […] Initial concentration of probe, [P]: […] Error bars indicate the standard deviations of three replicate experiments.

In data set [2] the test system is VIM-27. Put plainly: Fluorescence of probes after incubation with recombinant VIM-27. To be noted: VIM-27 1 to 200 fmols; probe 10 μM, 25 μL 1×PBS pH 7.4, room temperature, 2 h. It counts as biochemical, Klebsiella pneumoniae. As to the method:
(§1) The fluorescence of the probes was measured before and after enzyme treatment using enzyme concentrations in the range of about 1 to about 200 fmols. […] CDC-1, a previously reported non-specific probe for β-lactamases employed as a positive control, as described by Xie et al., (2012) J. Nat.

Data set [3] concerns the target T1, IMP-1 (Serratia marcescens, UniProt P52699). It counts as biochemical, Escherichia coli. To be noted: IMP-1 1 to 200 fmols; probe 10 μM, 25 μL 1×PBS pH 7.4, room temperature, 2 h.
For data set [4], the target named is T2, NDM-1 (Klebsiella pneumoniae, UniProt C7C422). The data set is classed as biochemical, Escherichia coli. To be noted: NDM-1 1 to 200 fmols; probe 10 μM, 25 μL 1×PBS pH 7.4, room temperature, 2 h.
T2 sequence (C7C422 29-270 limits assumed): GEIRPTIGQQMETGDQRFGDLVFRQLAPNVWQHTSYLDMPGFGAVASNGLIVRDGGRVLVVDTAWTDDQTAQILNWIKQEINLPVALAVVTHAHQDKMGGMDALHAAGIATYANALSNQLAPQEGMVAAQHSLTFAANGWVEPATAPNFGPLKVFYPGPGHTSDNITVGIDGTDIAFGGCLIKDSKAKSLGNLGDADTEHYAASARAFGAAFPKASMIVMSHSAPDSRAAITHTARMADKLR
For data set [5], the target named is T3, KPC-3 (Klebsiella pneumoniae, UniProt Q9F663, H272Y). The data set is classed as biochemical. Conditions: KPC-3 1 to 200 fmols; probe 10 μM, 25 μL 1×PBS pH 7.4, room temperature, 2 h.
T3 sequence (Q9F663 25-293 H272Y): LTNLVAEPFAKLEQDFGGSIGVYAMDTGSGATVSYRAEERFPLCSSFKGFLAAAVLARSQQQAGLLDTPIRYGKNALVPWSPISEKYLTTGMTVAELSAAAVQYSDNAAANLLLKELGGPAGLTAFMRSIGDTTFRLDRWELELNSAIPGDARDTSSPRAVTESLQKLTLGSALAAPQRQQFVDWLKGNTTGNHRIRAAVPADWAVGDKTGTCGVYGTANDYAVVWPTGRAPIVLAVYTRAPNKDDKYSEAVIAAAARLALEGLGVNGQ
Another data set concerns the target TEM-1 Bla (Escherichia coli, UniProt P62593). The data set is classed as biochemical. To be noted: TEM-1 Bla 1 to 200 fmols; probe 10 μM, 25 μL 1×PBS pH 7.4, room temperature, 2 h.
A further data set has as its target BlaC (Mycobacterium tuberculosis, UniProt P9WKD3). The experiment in a line: Fluorescence of probes after incubation with recombinant BlaC. The data set is classed as biochemical. Conditions: BlaC 1 to 200 fmols; probe 10 μM, 25 μL 1×PBS pH 7.4, room temperature, 2 h. On the procedure: as §1
Data set [6] deals with T1, IMP-1. To be noted: from Lineweaver-Burk plots.
Description: (§2) The kinetic parameters of the probes of the disclosure with different 3-lactamases were determined from Lineweaver-Burk plots and summarized in FIGS. 7A-13F and Table 1.
(§3) Kinetic experiments were conducted in a M1000 microplate reader (TECAN, research triangle park, NC).
In data set [7] the target is T2, NDM-1. Conditions: from Lineweaver-Burk plots.
Description: as §2, §3
For data set [8], the target named is T3, KPC-3. To be noted: from Lineweaver-Burk plots.
Description: as §2, §3
Data set [9] concerns VIM-27. The experiment in a line: Kinetic parameters of probes with recombinant VIM-27 (Lineweaver-Burk plots). Conditions: from Lineweaver-Burk plots.
Description: as §2, §3

Marks after values point to notes of the source that are not given here.

T1 sequence (P52699 19-246 limits assumed): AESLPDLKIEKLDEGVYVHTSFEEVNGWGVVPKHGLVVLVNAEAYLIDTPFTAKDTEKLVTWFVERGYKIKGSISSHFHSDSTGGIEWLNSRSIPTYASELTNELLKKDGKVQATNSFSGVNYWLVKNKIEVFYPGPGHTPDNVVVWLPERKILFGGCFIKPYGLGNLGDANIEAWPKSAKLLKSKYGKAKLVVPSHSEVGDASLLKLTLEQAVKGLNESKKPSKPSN
Chain of BlaC (P9WKD3 41-307 limits assumed): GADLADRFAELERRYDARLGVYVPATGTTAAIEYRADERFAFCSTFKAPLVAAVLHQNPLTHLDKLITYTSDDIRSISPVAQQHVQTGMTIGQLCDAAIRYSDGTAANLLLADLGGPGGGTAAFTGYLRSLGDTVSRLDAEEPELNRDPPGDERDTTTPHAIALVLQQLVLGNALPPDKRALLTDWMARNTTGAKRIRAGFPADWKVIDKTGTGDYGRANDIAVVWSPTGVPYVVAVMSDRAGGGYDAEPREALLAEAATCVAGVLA
Chain of TEM-1 Bla (P62593 24-286 limits assumed): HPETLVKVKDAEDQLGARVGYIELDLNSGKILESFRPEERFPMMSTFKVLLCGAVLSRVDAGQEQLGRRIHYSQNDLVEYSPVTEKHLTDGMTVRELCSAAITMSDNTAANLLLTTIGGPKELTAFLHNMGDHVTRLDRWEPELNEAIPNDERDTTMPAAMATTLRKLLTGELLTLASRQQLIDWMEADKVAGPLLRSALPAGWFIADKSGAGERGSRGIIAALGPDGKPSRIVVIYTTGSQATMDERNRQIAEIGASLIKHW

For `O=C(Cc1ccccc1)N[C@@H]1C(=O)N2C(C(=O)O)=C(COc3ccc4ccc(=O)oc4c3)CS[C@H]12` [CDC-1, reference compound], the Spontaneous hydrolysis rate in data set [1] is 2.4^b ×10^−7s^−1. For the same molecule, the fluorescence enhancement result in the data set on VIM-27 [2], at IMP-1 [3], at NDM-1 [4], at KPC-3 [5], at TEM-1 Bla and at BlaC was “positive fluorescence enhancement” in each case. The Km (in general, the concentration of substrate that gives half-maximal velocity) is 4 ± 0.1 µM on IMP-1 [6], 5.04 ± 3.2 µM at NDM-1 [7], 21 ± 1.34 µM at KPC-3 [8] and 3.8 ± 2.7 µM in the data set on VIM-27 [9]. Moreover, the kcat (usually the maximal rate divided by the concentration of active sites) on IMP-1 [6] is 7.9 ± 0.1 s⁻¹; on NDM-1 [7], 4.6 ± 0.3 s⁻¹; on KPC-3 [8] it was 35.4 ± 0.04 s⁻¹; in the data set with VIM-27 [9] it was 2.3 ± 0.3 s⁻¹.
